Drawing on publication PMC5485393, “Tailored chondroitin sulfate glycomimetics via a tunable multivalent scaffold for potentiating NGF/TrkA-induced neurogenesis” (Chemical Science, 2014), this text covers Kd and kon for 2 molecules.

This experiment deals with NGF (Homo sapiens, UniProt P01138). Description: SPR (Biacore T100) kinetic analysis of NGF binding to immobilized glycopeptides. Conditions: for kon: read-out: association rate constant ka of NGF binding (SPR), SEM. (In SPR one partner is held on a chip, and binding of the other changes the refractive index at the surface.)
Sequence of NGF (P01138 122-241): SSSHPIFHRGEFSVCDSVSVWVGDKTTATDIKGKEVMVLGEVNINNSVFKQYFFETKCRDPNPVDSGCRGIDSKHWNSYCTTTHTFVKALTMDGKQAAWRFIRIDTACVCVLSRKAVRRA

Method: SPR technology was employed to facilitate quantitative, real-time kinetic analysis of glycopeptide–NGF binding. Biotinylated glycopeptides and CS-E polysaccharides were immobilized on streptavidin-coated surface at normalized levels by molecular weights, and the interactions with NGF were investigated as a function of NGF concentration.
Surface Plasmon Resonance (SPR): Affinity measurements were performed using a Biacore T100
system (GE Healthcare). The CM5 sensor chip was used for all measurements. The sensor was primed
with HBS-EP+ (10 mM HEPES pH 7.4, 150 mM NaCl, 3.4 mM EDTA, 0.005% P20, GE Healthcare)
buffer and was activated using amine coupling through 1:1 mixture of 0.4 M EDC and 0.1 M NHS.
Streptavidin solution (0.008mg/ml) in Acetate 5.0 buffer (GE Healthcare) was used and remaining
activated groups were blocked with 1 M solution of ethanolamine (pH 8.5). The final amount of
streptavidin covalently immobilized on the surface was typically 700 RU. Flow cell 1 (or 3) was used as a
reference to subtract nonspecific binding, drift, and the bulk refractive index, while flow cell 2 (or 4) was
further immobilized with either glycopeptides or CS-E polysaccharides. Either biotinylated glycopeptides
or CS-E polysaccharides (20 nM) were dissolved in HBS-EP+ buffer and were injected to flow cell 2 (or
4) at 30 µL/min until the baseline response increased by 104, 127, and 110 RU, for glycopeptide 5, 1, and
CS-E polysaccharides, respectively. For a given affinity measurement, these series of peptide solutions
were successively injected into the flow cells for 240 seconds of contact time and 800 seconds of
dissociation time using a flow rate of 50 μL/min at 25 °C. Flow cell was regenerated using 2.5 M MgCl2
at 30 μL/min. Association (ka) and dissociation (kd) rate constants were calculated with a 1:1 binding
model using Biacore evaluation software, and KD values were calculated from the ratio of kd to ka. Kinetic

The Kd is the equilibrium constant for the complex coming apart. A lower Kd goes with tighter binding. For `COC(=O)[C@@H]1C[C@@H](n2cc(CO[C@@H]3O[C@H](COS(=O)(=O)O)[C@H](OS(=O)(=O)O)[C@H](O[C@@H]4O[C@H](C(=O)O)[C@@H](O)[C@H](O)[C@H]4O)[C@H]3NC(C)=O)nn2)CN1C(=O)[C@@H]1CCCN1C(=O)[C@@H]1CCCN1C(=O)[C@@H]1C[C@@H](n2cc(CO[C@@H]3O[C@H](COS(=O)(=O)O)[C@H](OS(=O)(=O)O)[C@H](O[C@@H]4O[C@H](C(=O)O)[C@@H](O)[C@H](O)[C@H]4O)[C@H]3NC(C)=O)nn2)CN1C(=O)[C@@H]1CCCN1C(=O)[C@@H]1CCCN1C(=O)[C@@H]1C[C@@H](n2cc(CO[C@@H]3O[C@H](COS(=O)(=O)O)[C@H](OS(=O)(=O)O)[C@H](O[C@@H]4O[C@H](C(=O)O)[C@@H](O)[C@H](O)[C@H]4O)[C@H]3NC(C)=O)nn2)CN1C(=O)[C@@H]1CCCN1C(=O)[C@@H]1CCCN1C(=O)[C@@H]1C[C@@H](n2cc(CO[C@@H]3O[C@H](COS(=O)(=O)O)[C@H](OS(=O)(=O)O)[C@H](O[C@@H]4O[C@H](C(=O)O)[C@@H](O)[C@H](O)[C@H]4O)[C@H]3NC(C)=O)nn2)CN1C(=O)[C@@H]1CCCN1C(=O)[C@@H]1CCCN1C(=O)[C@@H]1C[C@@H](n2cc(CO[C@@H]3O[C@H](COS(=O)(=O)O)[C@H](OS(=O)(=O)O)[C@H](O[C@@H]4O[C@H](C(=O)O)[C@@H](O)[C@H](O)[C@H]4O)[C@H]3NC(C)=O)nn2)CN1C(=O)[C@@H]1CCCN1C(=O)[C@@H]1CCCN1C(=O)[C@@H]1C[C@@H](n2cc(CO[C@@H]3O[C@H](COS(=O)(=O)O)[C@H](OS(=O)(=O)O)[C@H](O[C@@H]4O[C@H](C(=O)O)[C@@H](O)[C@H](O)[C@H]4O)[C@H]3NC(C)=O)nn2)CN1C(=O)[C@@H]1CCCN1C(=O)[C@@H]1CCCN1C(=O)[C@@H]1C[C@@H](n2cc(CO[C@@H]3O[C@H](COS(=O)(=O)O)[C@H](OS(=O)(=O)O)[C@H](O[C@@H]4O[C@H](C(=O)O)[C@@H](O)[C@H](O)[C@H]4O)[C@H]3NC(C)=O)nn2)CN1C(=O)[C@@H]1CCCN1C(=O)[C@@H]1CCCN1C(=O)[C@@H]1C[C@@H](n2cc(CO[C@@H]3O[C@H](COS(=O)(=O)O)[C@H](OS(=O)(=O)O)[C@H](O[C@@H]4O[C@H](C(=O)O)[C@@H](O)[C@H](O)[C@H]4O)[C@H]3NC(C)=O)nn2)CN1C(=O)[C@@H]1CCCN1C(=O)[C@@H]1CCCN1C(=O)[C@@H]1C[C@@H](n2cc(CO[C@@H]3O[C@H](COS(=O)(=O)O)[C@H](OS(=O)(=O)O)[C@H](O[C@@H]4O[C@H](C(=O)O)[C@@H](O)[C@H](O)[C@H]4O)[C@H]3NC(C)=O)nn2)CN1C(=O)[C@@H]1CCCN1C(=O)[C@@H]1CCCN1C(=O)[C@@H]1C[C@@H](n2cc(CO[C@@H]3O[C@H](COS(=O)(=O)O)[C@H](OS(=O)(=O)O)[C@H](O[C@@H]4O[C@H](C(=O)O)[C@@H](O)[C@H](O)[C@H]4O)[C@H]3NC(C)=O)nn2)CN1C(=O)[C@@H]1CCCN1C(=O)[C@@H]1CCCN1C(=O)[C@@H]1C[C@@H](n2cc(CO[C@@H]3O[C@H](COS(=O)(=O)O)[C@H](OS(=O)(=O)O)[C@H](O[C@@H]4O[C@H](C(=O)O)[C@@H](O)[C@H](O)[C@H]4O)[C@H]3NC(C)=O)nn2)CN1C(=O)[C@@H]1CCCN1C(=O)[C@@H]1CCCN1C(=O)[C@@H]1C[C@@H](n2cc(CO[C@@H]3O[C@H](COS(=O)(=O)O)[C@H](OS(=O)(=O)O)[C@H](O[C@@H]4O[C@H](C(=O)O)[C@@H](O)[C@H](O)[C@H]4O)[C@H]3NC(C)=O)nn2)CN1C(=O)[C@@H]1CCCN1C(=O)[C@@H]1CCCN1C(=O)CCOCCOCCOCCOCCOCCOCCOCCOCCOCCOCCOCCOCCNC(=O)CCCC[C@@H]1SC[C@@H]2NC(=O)N[C@@H]21` [compound 5], the Kd was 146 nM and the kon was 13400 M⁻¹ s⁻¹.

Take `COC(=O)[C@@H]1C[C@@H](n2cc(CO[C@@H]3O[C@H](COS(=O)(=O)O)[C@H](OS(=O)(=O)O)[C@H](O[C@@H]4O[C@H](C(=O)O)[C@@H](O)[C@H](O)[C@H]4O)[C@H]3NC(C)=O)nn2)CN1C(=O)[C@@H]1C[C@@H](n2cc(CO[C@@H]3O[C@H](COS(=O)(=O)O)[C@H](OS(=O)(=O)O)[C@H](O[C@@H]4O[C@H](C(=O)O)[C@@H](O)[C@H](O)[C@H]4O)[C@H]3NC(C)=O)nn2)CN1C(=O)[C@@H]1C[C@@H](n2cc(CO[C@@H]3O[C@H](COS(=O)(=O)O)[C@H](OS(=O)(=O)O)[C@H](O[C@@H]4O[C@H](C(=O)O)[C@@H](O)[C@H](O)[C@H]4O)[C@H]3NC(C)=O)nn2)CN1C(=O)[C@@H]1C[C@@H](n2cc(CO[C@@H]3O[C@H](COS(=O)(=O)O)[C@H](OS(=O)(=O)O)[C@H](O[C@@H]4O[C@H](C(=O)O)[C@@H](O)[C@H](O)[C@H]4O)[C@H]3NC(C)=O)nn2)CN1C(=O)[C@@H]1C[C@@H](n2cc(CO[C@@H]3O[C@H](COS(=O)(=O)O)[C@H](OS(=O)(=O)O)[C@H](O[C@@H]4O[C@H](C(=O)O)[C@@H](O)[C@H](O)[C@H]4O)[C@H]3NC(C)=O)nn2)CN1C(=O)[C@@H]1C[C@@H](n2cc(CO[C@@H]3O[C@H](COS(=O)(=O)O)[C@H](OS(=O)(=O)O)[C@H](O[C@@H]4O[C@H](C(=O)O)[C@@H](O)[C@H](O)[C@H]4O)[C@H]3NC(C)=O)nn2)CN1C(=O)[C@@H]1C[C@@H](n2cc(CO[C@@H]3O[C@H](COS(=O)(=O)O)[C@H](OS(=O)(=O)O)[C@H](O[C@@H]4O[C@H](C(=O)O)[C@@H](O)[C@H](O)[C@H]4O)[C@H]3NC(C)=O)nn2)CN1C(=O)[C@@H]1C[C@@H](n2cc(CO[C@@H]3O[C@H](COS(=O)(=O)O)[C@H](OS(=O)(=O)O)[C@H](O[C@@H]4O[C@H](C(=O)O)[C@@H](O)[C@H](O)[C@H]4O)[C@H]3NC(C)=O)nn2)CN1C(=O)[C@@H]1C[C@@H](n2cc(CO[C@@H]3O[C@H](COS(=O)(=O)O)[C@H](OS(=O)(=O)O)[C@H](O[C@@H]4O[C@H](C(=O)O)[C@@H](O)[C@H](O)[C@H]4O)[C@H]3NC(C)=O)nn2)CN1C(=O)[C@@H]1C[C@@H](n2cc(CO[C@@H]3O[C@H](COS(=O)(=O)O)[C@H](OS(=O)(=O)O)[C@H](O[C@@H]4O[C@H](C(=O)O)[C@@H](O)[C@H](O)[C@H]4O)[C@H]3NC(C)=O)nn2)CN1C(=O)[C@@H]1C[C@@H](n2cc(CO[C@@H]3O[C@H](COS(=O)(=O)O)[C@H](OS(=O)(=O)O)[C@H](O[C@@H]4O[C@H](C(=O)O)[C@@H](O)[C@H](O)[C@H]4O)[C@H]3NC(C)=O)nn2)CN1C(=O)[C@@H]1C[C@@H](n2cc(CO[C@@H]3O[C@H](COS(=O)(=O)O)[C@H](OS(=O)(=O)O)[C@H](O[C@@H]4O[C@H](C(=O)O)[C@@H](O)[C@H](O)[C@H]4O)[C@H]3NC(C)=O)nn2)CN1C(=O)CCOCCOCCOCCOCCOCCOCCOCCOCCOCCOCCOCCOCCNC(=O)CCCC[C@@H]1SC[C@@H]2NC(=O)N[C@@H]21` [compound 1]: binding was characterised by a dissociation constant (Kd) of 3570 nM and the kon was 346 M⁻¹ s⁻¹.
